System: recombinant NL4-3 virus (Renilla luciferase in nef, Gag P373S; NLRluc)
Test: HIV Cell Culture Assay (luciferase reporter virus in MT-2 cells)
Format: cell-based
Details: Renilla, NL43, MT-2 cells infected for 4-5 days with NLRluc recombinants, luciferase activity
Experimental: MT-2 cells and 293T cells were obtained from the NIH AIDS Research and Reference Reagent Program. MT-2 cells were propagated in RPMI 1640 media supplemented with 10% heat inactivated fetal bovine serum, […]. The 293T cells were propagated in DMEM media supplemented with 10% heat inactivated fetal bovine serum (FBS), 100 units/mL penicillin G and 100 μg/mL streptomycin. The proviral DNA clone of NL4-3 was obtained from the NIH AIDS Research and Reference Reagent Program. A recombinant NL4-3 virus, in which a section of the nef gene from NL4-3 was replaced with the Renilla luciferase gene, was used as a reference virus. In addition, residue Gag P373 was converted to P373S. Briefly, the recombinant virus was prepared by transfection of the altered proviral clone of NL4-3. Transfections were performed in 293T cells using LipofectAMINE PLUS from Invitrogen (Carlsbad, Calif.), according to manufacturer's instruction. The virus was titered in MT-2 cells using luciferase enzyme activity as a marker. Luciferase was quantitated using the Dual Luciferase kit from Promega (Madison, Wis.), with modifications to the manufacturer's protocol. The diluted Passive Lysis solution was pre-mixed with the re-suspended Luciferase Assay Reagent and the re-suspended Stop & Glo Substrate (2:1:1 ratio). Fifty (50) μL of the mixture was added to each aspirated well on assay plates and luciferase activity was measured immediately on a Wallac TriLux (Perkin-Elmer). Antiviral activities of inhibitors toward the recombinant virus were quantified by measuring luciferase activity in cells infected for 4-5 days with NLRluc recombinants in the presence serial dilutions of the inhibitor. Table 1 is the key for the data in Table 2.

| Compound | EC50 | EC50 (reported as group A/B) |
| --- | --- | --- |
| C=C(C)[C@@H]1CC[C@]2(NCCN3CC4(C3)CN(S(C)(=O)=O)C4)CC[C@]3(C)[C@H](CC[C@@H]4[C@@]5(C)CC=C(c6ccc(C(=O)O)cc6)C(C)(C)[C@@H]5CC[C@]43C)[C@@H]12 [Example 16, 4-((1R,3aS,5aR,5bR,7aR,11aS,11bR,13 aR,13bR)-5a,5b,8,8,11a-pentamethyl-3a-((2-(6-(methylsulfonyl)-2,6-diazaspiro[3.3]heptan-2-yl)ethyl)amino)-1-(prop-1-en-2-yl)-2,3,3a,4,5,5a,5b,6,7,7a,8,11,11a,11b,12,13,13a,13b-octadecahydro-1H-cyclopenta[a]chrysen-9-yl)benzoic acid] | 1.64 nM |  |
| C=C(C)[C@@H]1CC[C@]2(NCCN3CC4C(C3)C4NS(C)(=O)=O)CC[C@]3(C)[C@H](CC[C@@H]4[C@@]5(C)CC=C(c6ccc(C(=O)O)cc6)C(C)(C)[C@@H]5CC[C@]43C)[C@@H]12 (stereo partly drawn) [Example 17, 4-((1R,3aS,5aR,5bR,7aR,11aS,11bR,13aR,13bR)-5a,5b,8,8,11a-pentamethyl-3a-((2-(6-(methylsulfonamido)-3-azabicyclo[3.1.0]hexan-3-yl)ethyl)amino)-1-(prop-1-en-2-yl)-2,3,3a,4,5,5a,5b,6,7,7a,8,11,11a,11b,12,13,13a,13b-octadecahydro-1H-cyclopenta[a]chrysen-9-yl)benzoic acid] |  | < 100 nM |
| C=C(C)[C@@H]1CC[C@]2(NCCN3C[C@H]4C[C@@H]3CS4(=O)=O)CC[C@]3(C)[C@H](CC[C@@H]4[C@@]5(C)CC=C(c6ccc(C(=O)O)cc6)C(C)(C)[C@@H]5CC[C@]43C)[C@@H]12 [Example 18, 4-((1R,3aS,5aR,5bR,7aR,11aS,11bR,13aR,13bR)-3a-((2-((1R,4R)-2,2-dioxido-2-thia-5-azabicyclo[2.2.1]heptan-5-yl)ethyl)amino)-5a,5b,8,8,11a-pentamethyl-1-(prop-1-en-2-yl)-2,3,3a,4,5,5a,5b,6,7,7a,8,11,11a,11b,12,13,13a,13b-octadecahydro-1H-cyclopenta[a]chrysen-9-yl)benzoic acid] |  | < 100 nM |
| C=C(C)[C@@H]1CC[C@]2(NCCN3[C@@H]4CCC[C@H]3COC4)CC[C@]3(C)[C@H](CC[C@@H]4[C@@]5(C)CC=C(c6ccc(C(=O)O)cc6)C(C)(C)[C@@H]5CC[C@]43C)[C@@H]12 [Example A1, 4-((1R,3aS,5aR,5bR,7aR,11aS,11bR,13aR,13bR)-3a-((2-((1R,5S)-3-oxa-9-azabicyclo[3.3.1]nonan-9-yl)ethyl)amino)-5a,5b,8,8,11a-pentamethyl-1-(prop-1-en-2-yl)-2,3,3a,4,5,5a,5b,6,7,7a,8,11,11a,11b,12,13,13a,13b-octadecahydro-1H-cyclopenta[a]chrysen-9-yl)benzoic acid] | 30 nM |  |
| C=C(C)[C@@H]1CC[C@]2(NCCN3CC4CCC(C3)O4)CC[C@]3(C)[C@H](CC[C@@H]4[C@@]5(C)CC=C(c6ccc(C(=O)O)cc6)C(C)(C)[C@@H]5CC[C@]43C)[C@@H]12 [Example A2, 4-((1R,3aS,5aR,5bR,7aR,11aS,11bR,13aR,13bR)-3a-((2-(8-oxa-3-azabicyclo[3.2.1]octan-3-yl)ethyl)amino)-5a,5b,8,8,11a-pentamethyl-1-(prop-1-en-2-yl)-2,3,3a,4,5,5a,5b,6,7,7a,8,11,11a,11b,12,13,13a,13b-octadecahydro-1H-cyclopenta[a]chrysen-9-yl)benzoic acid] | 71 nM |  |
| C=C(C)[C@@H]1CC[C@]2(NCCN3C4COCC3COC4)CC[C@]3(C)[C@H](CC[C@@H]4[C@@]5(C)CC=C(c6ccc(C(=O)O)cc6)C(C)(C)[C@@H]5CC[C@]43C)[C@@H]12 [Example A3, 4-((1R,3aS,5aR,5bR,7aR,11aS,11bR,13aR,13bR)-3a-((2-((1R,5R)-3,7-dioxa-9-azabicyclo[3.3.1]nonan-9-yl)ethyl)amino)-5a,5b,8,8,11a-pentamethyl-1-(prop-1-en-2-yl)-2,3,3a,4,5,5a,5b,6,7,7a,8,11,11a,11b,12,13,13a,13b-octadecahydro-1H-cyclopenta[a]chrysen-9-yl)benzoic acid] | 83 nM |  |
| C=C(C)[C@@H]1CC[C@]2(NCCN3C4CCC3CC(C)(O)C4)CC[C@]3(C)[C@H](CC[C@@H]4[C@@]5(C)CC=C(c6ccc(C(=O)O)cc6)C(C)(C)[C@@H]5CC[C@]43C)[C@@H]12 (stereo partly drawn) [Example A4, 4-((1R,3aS,5aR,5bR,7aR,11aS,11bR,13aR,13bR)-3a-((2-((1R,3S,5S)-3-hydroxy-3-methyl-8-azabicyclo[3.2.1]octan-8-yl)ethyl)amino)-5a,5b,8,8,11a-pentamethyl-1-(prop-1-en-2-yl)-2,3,3a,4,5,5a,5b,6,7,7a,8,11,11a,11b,12,13,13a,13b-octadecahydro-1H-cyclopenta[a]chrysen-9-yl)benzoic acid] | 8.8 nM |  |
| C=C(C)[C@@H]1CC[C@]2(NCCN3CC4CC3CO4)CC[C@]3(C)[C@H](CC[C@@H]4[C@@]5(C)CC=C(C6=CCC(C(=O)O)CC6)C(C)(C)[C@@H]5CC[C@]43C)[C@@H]12 (stereo partly drawn) [Example B1, 4-((1R,3aS,5aR,5bR,7aR,11aS,11bR,13aR,13bR)-3a-((2-(2-oxa-5-azabicyclo[2.2.1]heptan-5-yl)ethyl)amino)-5a,5b,8,8,11a-pentamethyl-1-(prop-1-en-2-yl)-2,3,3a,4,5,5a,5b,6,7,7a,8,11,11a,11b,12,13,13a,13b-octadecahydro-1H-cyclopenta[a]chrysen-9-yl)cyclohex-3-enecarboxylic acid] |  | < 100 nM |
| C=C(C)[C@@H]1CC[C@]2(NCCN3C[C@@H]4C[C@H]3CS4(=O)=O)CC[C@]3(C)[C@H](CC[C@@H]4[C@@]5(C)CC=C(C6=CCC(C(=O)O)CC6)C(C)(C)[C@@H]5CC[C@]43C)[C@@H]12 (stereo partly drawn) [Example B2, 4-((1R,3aS,5aR,5bR,7aR,11aS,11bR,13aR,13bR)-3a-((2((1S,4S)-2,2-dioxido-2-thia-5-azabicyclo[2.2.1]heptan-5-yl)ethyl)amino)-5a,5b,8,8,11a-pentamethyl-1-(prop-1-en-2-yl)-2,3,3a,4,5,5a,5b,6,7,7a,8,11,11a,11b,12,13,13a,13b-octadecahydro-1H-cyclopenta[a]chrysen-9-yl)cyclohex-3-enecarboxylic acid] | 1.18 nM |  |
| C=C(C)[C@@H]1CC[C@]2(NCCN3CCC4(CC3)COC4)CC[C@]3(C)[C@H](CC[C@@H]4[C@@]5(C)CC=C(c6ccc(C(=O)O)cc6)C(C)(C)[C@@H]5CC[C@]43C)[C@@H]12 [Example B3] | 3.82 nM |  |
| C=C(C)[C@@H]1CC[C@]2(NCCN3C[C@@H]4C[C@H]3CS4(=O)=O)CC[C@]3(C)[C@H](CC[C@@H]4[C@@]5(C)CC=C(C6=CC[C@@H](C(=O)O)CC6)C(C)(C)[C@@H]5CC[C@]43C)[C@@H]12 [Example B8, (S)-4-((1R,3aS,5aR,5bR,7aR,11aS,11bR,13aR,13bR)-3a-((2-((1S,4S)-2,2-dioxido-2-thia-5-azabicyclo[2.2.1]heptan-5-yl)ethyl)amino)-5a,5b,8,8,11a-pentamethyl-1-(prop-1-en-2-yl)-2,3,3a,4,5,5a,5b,6,7,7a,8,11,11a,11b,12,13,13a,13b-octadecahydro-1H-cyclopenta[a]chrysen-9-yl)cyclohex-3-enecarboxylic acid] | 1.3 nM |  |
| C=C(C)[C@@H]1CC[C@]2(NCCN3C[C@@H]4C[C@H]3CO4)CC[C@]3(C)[C@H](CC[C@@H]4[C@@]5(C)CC=C(C6=CC[C@H](C(=O)O)CC6)C(C)(C)[C@@H]5CC[C@]43C)[C@@H]12 [Example B9, (R)-4-((1R,3aS,5aR,5bR,7aR,11aS,11bR,13aR,13bR)-3a-((2-((1S,4S)-2-oxa-5-azabicyclo[2.2.1]heptan-5-yl)ethyl)amino)-5a,5b,8,8,11a-pentamethyl-1-(prop-1-en-2-yl)-2,3,3a,4,5,5a,5b,6,7,7a,8,11,11a,11b,12,13,13a,13b-octadecahydro-1H-cyclopenta[a]chrysen-9-yl)cyclohex-3-enecarboxylic acid] | 1.69 nM |  |
| C=C(C)[C@@H]1CC[C@]2(NCCN3C[C@@H]4C[C@H]3CO4)CC[C@]3(C)[C@H](CC[C@@H]4[C@@]5(C)CC=C(C6=CC[C@@H](C(=O)O)CC6)C(C)(C)[C@@H]5CC[C@]43C)[C@@H]12 [Example B10, (S)-4-((1R,3 aS,5aR,5bR,7aR,11aS,11bR,13 aR,13bR)-3a-((2-((1S,4S)-2-oxa-5-azabicyclo[2.2.1]heptan-5-yl)ethyl)amino)-5a,5b,8,8,11a-pentamethyl-1-(prop-1-en-2-yl)-2,3,3a,4,5,5a,5b,6,7,7a,8,11,11a,11b,12,13,13a,13b-octadecahydro-1H-cyclopenta[a]chrysen-9-yl)cyclohex-3-enecarboxylic acid] |  | < 100 nM |
